Test results published in patent publication US20100184809A1, “Heterocyclic FXR Binding Compounds” (PHENEX PHARMACEUTICALS AG, priority 2006, published 2010).

Assays:
[1] = Pharmacokinetic parameters in C57BL/6 mice (plasma concentration after peroral gavage); type: in vivo; conditions: mouse, oral, perorally by gavage 10 mg/kg, male C57BL/6 mice, read-out: mean plasma conc.
Experimental: (§1) Information on the rate and extent of absorption of the test compounds were generated using two distinct animal models, C57/BI/6J and C57/BLKS/J(mLepr^db/db) mice. Compounds were applied perorally by gavage at 10 mg/kg each to male 8 weeks old C57BL/6 mice and plasma concentrations of the test items were determined by LC-MS/MS (Table 11). Alternatively, compounds were applied perorally by gavage at 25 mg/kg each to 16 weeks old male C57/BLKS/J(mLepr^db/db) mice and plasma concentrations of the test items were determined 120 min after gavage by LC-MS/MS (Table 12).
(§2) A solution of 20 mg/ml of each test item was produced by diluting them in the vehicle, 30% HPBCD (hydroxypropyl-beta-cyclodextrin) in 20 mM phosphate buffer pH7.0 (v/w). These solutions were stirred overnight at room temperature and heated to 60° C. for 10 minutes, resulting in a full solubilization. The application was performed by administrating the solution perorally to the mice, with an application volume of 10 ml/kg. For each time point five mice were used. Blood samples were obtained by sacrificing animals for each time point followed by cardiac puncture. Blood samples were treated with Li-heparin during collection procedure and stored on ice until centrifugation at 645 g (5 min, 4° C.). Plasma was harvested and kept at −20° C. until being assayed. To 50 μl of mouse plasma sample 6 μl acetonitrile containing an internal standard was added. Samples were vigorously shaken and centrifuged for 10 minutes at 6000 g and 20° C. An aliquot of the particle-free supernatant was transferred to 200 μl sampler vials and subsequently subjected to LC MS/MS for quantification.

[2] = Pharmacokinetic parameters in C57/BLKS/J(mLepr^db/db) mice (plasma concentration after peroral gavage); type: in vivo; conditions: mouse, oral, perorally by gavage 25 mg/kg, male C57/BLKS/J(mLepr^db/db) mice, read-out: mean plasma conc.
Experimental: as §1
as §2, with “Blood samples were treated with Li-heparin during collection procedure and stored on ice until centrifugation at 645 g (5 min, 4° C.). Plasma was harvested and kept at −20° C. until being assayed. To 50 μl of mouse plasma sample 6 μl acetonitrile containing an internal standard was added. Samples were vigorously shaken and centrifuged for 10 minutes at 6000 g and 20° C.” left out

PAMPA permeability assay = type: in vitro ADME; conditions: % of compound found in the receiver compartment after 16 hours; PBS pH 7.4, 5% DMSO, 23° C.
Experimental: Artificial membrane permeability was determined as follows: Tested compounds were dissolved to 10 mM in 100% DMSO. Permeability of compounds was measured in PBS (pH 7.4), 5% DMSO at 23° C. Safire (Tecan) plate reader was used for measurement the UV/Vis absorption. Protocol: Dilute stocks of tested compounds and controls with PBS to 1.67 mM and mix well by pipeitting, add 280 μl of PBS, 5% DMSO to acceptor plate, add 5 μl of 2% L-α-Phosphatidylcholine suspension in dodecane to the membrane of donor plate, Immediately add 98 μl of PBS to donor plate and make the sandwich with acceptor plate. Add 42 μl of tested compounds and controls dilutions to […], cover the plate, place into camera and incubate for 16 hours. Make the equilibrium plate, add 225 μl of PBS, 3,7% DMSO and 25 μl of tested compounds and controls dilutions to UV plate. After 16 hours pull the donor plate out and transfer 250 μl from acceptor plate to UV plate. Scan UV plate on Safire (Tecan) plate reader from […]. Permeability is reported in % of compound found in the receiver compartment after the incubation period.

[3] = Plasma protein binding assay (equilibrium dialysis); type: in vitro ADME; conditions: 37° C., extrapolated fraction unbound
Experimental: Equilibrium dialysis is used to determine the extent of binding of a compound to plasma proteins. A semi-permeable membrane separates a protein-containing compartment from a protein-free compartment. The system is allowed to equilibrate at 37° C. The test compound present in each compartment is quantified by LC-MS/MS. The extent of binding is reported as a fraction unbound (fu) value which is calculated as fu=1−(PC−PF)/PC. PC=Test compound concentration in protein-containing compartment. PF=Test compound concentration in protein-free compartment. In addition to using whole plasma, the plasma protein binding assay can be performed using two other ratios of plasma (10% or 50% plasma in buffer v/v). The following equations are used to convert from a fraction unbound at 10% or 50% to a fraction unbound at 100%: […]

[4] = Human microsomal stability assay; type: in vitro ADME; conditions: liver microsomes, 0.5 mg microsomal protein/ml, 10 μM compound, 37° C., read-out: Human liver microsome clearance
Experimental: Compound stability towards human liver microsomes was determined as follows: Human liver microsomal suspension (1 ml) prepared in reaction buffer at a concentration of 0.5 mg microsomal protein/ml was preincubated for 3 min at 37° C. with a NADPH-generating system (10 mM glucose 6-phosphate, 1 mM NADP+, and 1 unit/ml yeast glucose-6-phosphate dehydrogenase). The final compounds concentration is 10 μM. Boiled microsomes (5 min) served as a control. Samples (50 μl) were then taken after 0, 5, 15, 30, 45, 120 min, into 200 μl acetonitrile, centrifuged for 15 min at 8000×g to remove the protein pellet. Samples were analyzed for parent compound by HPLC. Method development: All samples for metabolic stability experiments were analyzed by HPLC. Only parent compounds were analyzed. Data analysis: The percentages of the parent compounds remaining was defined as the ratio of the parent compounds peak area at a specific point and the peak area at the first time point multiplied by 100%. The metabolic stability was evaluated by plotting the natural logarithm of the percentage parent compounds remaining versus time and performing linear regression and finally reported as clearance [μl/min/mg protein] which is reversed proportional to compound stability. Applying this protocol, Microsomal stability of examples and reference compounds was determined. (Table 7)

[5] = Rat microsomal stability assay; type: in vitro ADME; conditions: liver microsomes, 37° C., NADPH, 45 minute, read-out: Rat liver microsome clearance
Experimental: Compound stability towards rat liver microsomes was determined as follows: The microsomes are incubated with the test compound at 37° C. in the presence of the co-factor, NADPH, which initiates the reaction. The reaction is terminated by the addition of methanol. Following centrifugation, the supernatant is analysed on the LC-MS/MS. The disappearance of test compound is monitored over a 45 minute time period. The In peak area ratio (compound peak area/internal standard peak area) is plotted against time and the gradient of the line determined. Finally, Intrinsic clearance CLint is computed by the following equations: elimination rate konstant (k)=−gradient; t1/2 (min)=0.693/k; V (μl/mg)=volume of incubation (μl)/protein in incubation (mg); CLint (μl/min/mg protein)=V*0.693/t1/2.

Row | Compound | concentration at 15 min [1] [ng/mL] | concentration at 45 min [1] [ng/mL] | concentration at 120 min [2] [ng/mL] | PAMPA Permeability (PAMPA permeability assay) [%] | fraction unbound [3] | microsomal CLint at 10 μM [4] [µL/min/mg] | microsomal CLint [5] [µL/min/mg]
1 | CC(C)c1onc(-c2c(Cl)cccc2Cl)c1COc1ccc(N(C)Cc2ccc(C(=O)O)cc2)c(C(F)(F)F)n1 [Example 28, 4(((6-((3-(2,6-Dichlorophenyl)-5-isopropylisoxazol-4-yl)methoxy)-2-(trifluoromethyl)pyridin-3-yl)(methyl)amino)methyl)benzoic acid] | 1780 | 2230 | 287 |  |  |  | 
2 | Cc1nc(OCc2c(-c3c(Cl)cccc3Cl)noc2C(C)C)ccc1N(C)S(=O)(=O)c1ccc(C(=O)O)cc1 [Example 4, 4-(N-(6-((3-(2,6-dichlorophenyl)-5-isopropylisoxazol-4-yl)methoxy)-2-methylpyridin-3-yl)—N-methylsulfamoyl)benzoic acid] |  |  |  | 50 | 0.0003 | 62 | 
3 | CC(C)c1onc(-c2c(Cl)cccc2Cl)c1COc1ccc(/C=C/c2cccc(C(=O)O)c2)c(Cl)c1 [Compound B, reference compound] | 1600 | 1650 | 164 | 7 |  | 100 | 310
4 | CC(C)c1onc(-c2c(Cl)cccc2Cl)c1COc1ccc(N(C)C(=O)c2ccc(C(=O)O)cc2)c(C(F)(F)F)n1 [Example 7, N-{6-[3-(2,6-dichloro-phenyl)-5-isopropyl-isoxazol-4-ylmethoxy]-2-trifluoromethyl-pyridin-3-yl}-N-methyl-terephthalamic acid] |  |  |  |  | 0.005 | 14 | 45
